Measurements as given in article PMC12294558, “New 1,2,4-Triazole Derivatives with a N-Mannich Base Structure Based on a 4,6-Dimethylpyridine Scaffold as Anticancer Agents: Design, Synthesis, Biological Evaluation, and Molecular Modeling” (International Journal of Molecular Sciences, 2025).

Tests used:
EPG cells = assay: MTT viability assay, gastric cancer cells; assay type: cell-based, human; conditions: for SI, EPG: CC50 CCD 841 CoTr / CC50 EPG; for CC50: Homo sapiens, MTT, 24 h, read-out: CC50 ± SD, EPG
Method: The cytotoxic effects of ten newly synthesized N-Mannich bases were assessed on the normal human intestinal epithelium (CCD 841 CoTr) and cancer cell lines: gastric cancer (EPG) and four colorectal cancer lines (Caco-2, LoVo, LoVo/Dx, and HT-29). Cell viability was evaluated using the MTT assay in accordance with Annex C of ISO 10993-5 [33].
The biological activity of the newly synthesized compounds was assessed in the context of anticancer activity. For this purpose, several gastrointestinal cancer lines were selected: gastric cancer (EPG 257, which belongs to the collection of the Laboratory of Cell Culture and Advanced Therapy at the University of Environmental and Life Sciences in Wrocław), and four colorectal cancer cell lines (LoVo, Caco-2, and HT-29) were obtained from the European Collection of Authenticated Cell Cultures (ECACC) and were delivered by Sigma-Aldrich, a certified distributor for the biobank. Additionally, LoVo cells were used to develop a doxorubicin-resistant subline, referred to as LoVo/Dx. Resistance was induced through gradual adaptation to increasing concentrations of doxorubicin, starting from 0.1 µg/mL and incrementally raised to 0.8 µg/mL. After reaching the maximum concentration, the cells were maintained in a medium containing 0.4 µg/mL doxorubicin for a period of three months to stabilize the resistant phenotype. […] The resulting LoVo/Dx subline, resistant to doxorubicin, was cultured in DMEM/F-12 medium and utilized in assays evaluating the effectiveness of novel compounds against multidrug-resistant cancer cells. […] The non-cancerous cell control was normal colonic epithelial cells (CCD 841 CoTr from American Type Culture Collection, (ATCC, Manassas, VA, USA)). Cell cultures were performed under standard conditions (5% CO2, 95% humidity, and 37 °C). Each cell line was cultured in the recommended medium: (1) HT-29 in McCoy’s 5a, (2) Caco-2 in Minimal Essential Medium (MEM, Biological Industries, Beit Haemek, Israel), (3) CCD 841 CoTr in Dulbecco’s Modified Eagle Medium (DMEM, Biological Industries, Beit Haemek, Israel), (4) LoVo in Dulbecco’s Modified Eagle Medium/F-12 (DMEM/F-12; Biological Industries, Beit Haemek, Israel), (5) LoVo/Dx in DMEM/F-12, and (6) EPG in DMEM. Culture media were supplemented with 10% fetal bovine serum (FBS, Sigma-Aldrich, Darmstadt, Germany) and antibiotics (penicillin and streptomycin; Sigma-Aldrich, Darmstadt, Germany). For assays, trypsinized (TrypLE solution, Thermo Fisher Scientific, Waltham, MA, USA) cells were seeded at appropriate densities of 10,000 cells per well for MTT and determination of apoptotic and necrotic cell numbers; 30,000 cells per well for the rhodamine accumulation assay; and 500,000 cells per well for ELISA tests.
The cytotoxicity of the compounds and drugs used as controls was assessed using the MTT assay. The assay also included a DMSO control. After seeding and allowing the cells to adhere overnight, they were treated with the tested compounds and drugs for another 24 h. After this time, the supernatant was removed, and a 1 mg/mL MTT solution was added for 2 h in 5% CO2, 95% humidity, at 37 °C. The supernatant was then removed, and isopropanol was added to dissolve the purple crystals over 30 min by shaking. Absorbance was measured at 570 nm in a Multiskan GO microplate reader (Thermo Fisher Scientific; Waltham, MA, USA). All reagents used for the assays were purchased from Sigma-Aldrich, Darmstadt, Germany.
Biological assays were performed in three independent replicates, each involving four samples. ELISA determinations were repeated three times.

[1] = target: T1, P-glycoprotein (LoVo cells) (Homo sapiens, UniProt P08183); assay: Rhodamine-123 accumulation assay in LoVo; assay type: cell-based; conditions: 50 µM, 24 h; versus untreated control
T1 construct: intracellular accumulation of rhodamine 123 (a fluorescent P-gp substrate analog) in P-gp-expressing cell lines (HT-29, LoVo, and LoVo/Dx); endogenous in cells; host or cells: HT-29, LoVo (ECACC via Sigma-Aldrich); LoVo/Dx (doxorubicin-selected subline of LoVo)
Source text: This test measured the intracellular accumulation of rhodamine 123 (a fluorescent P-gp substrate analog) in P-gp-expressing cell lines (HT-29, LoVo, and LoVo/Dx). Following accumulation and efflux phases, the fluorescence of rhodamine 123 (Rh-123) was quantified using spectrofluorimetry. The results are illustrated in Figure 3. Verapamil, a calcium channel blocker, served as a positive control for P-gp inhibition due to its well-established ability to inhibit P-gp activity. Verapamil binds to P-gp, inhibiting its function, which increases the intracellular concentration of chemotherapeutic drugs and other P-gp substrates.
The activity was measured for cells treated with a 50 µM concentration of the compounds and drugs in the recommended media for each cell line (without FBS) in a volume of 100 µL for 24 h. In this test, verapamil served as the control. After the incubation period, a 10 mM Rhodamine-123 (Rh-123) solution was prepared in a 1:1 DMSO mixture. […] Fluorescence was measured at 485 nm excitation and 538 nm emission using a Biotek Synergy H1 microplate reader (Agilent Technologies, Inc., Santa Clara, CA, USA). […]
Results are expressed as the mean ± SD (standard deviation) relative to the respective control (E/E0), where E represents the mean result for the measured sample, and E0 represents the mean result for the control. […]

HT-29 cells = assay: Annexin-V/propidium iodide apoptosis and necrosis detection; assay type: cell-based, human; conditions: HT-29, 1 µM, 24 h
Method: To evaluate the impact of new compounds on apoptosis induction, an annexin-V/propidium iodide staining assay was conducted on HT-29 cells, with doxorubicin serving as the positive control (Figure 4). The tested compounds 5 and 6, at a concentration of 1 µM, increased the number of cells in the apoptosis phase, although to a lesser extent than doxorubicin.
The assessment of cell death—apoptosis was performed after 24 h of incubation of HT-29 cells with a concentration of 1 µM of compounds 5 and 6 and doxorubicin. Fluorescein-conjugated annexin V in PBS with Mg^2+ and Ca^2+ ions (Thermo Fisher Scientific, Waltham, MA, USA) was then used. To ensure that all cells (both live and dead) were counted, 10 µM Hoechst (Sigma-Aldrich, Darmstadt, Germany) was added to stain cell nuclei. The culture was then incubated for 20 min at 37 °C. Apoptosis analysis was performed under a fluorescence microscope (EVOS FL, Thermo Fisher Scientific, Waltham, MA, USA), using 10× magnification, in triplicate for each compound. The open-source ImageJ platform with the Fiji plugin [57] was used to analyze the number of all cells, as well as those in the apoptotic and necrotic phases.
The fluorescence signal was interpreted as follows: green fluorescence indicated apoptotic cells (annexin V staining), red fluorescence corresponded to necrotic cells, and blue fluorescence (Hoechst staining) marked all cell nuclei.

T1 sequence (P08183 whole entry): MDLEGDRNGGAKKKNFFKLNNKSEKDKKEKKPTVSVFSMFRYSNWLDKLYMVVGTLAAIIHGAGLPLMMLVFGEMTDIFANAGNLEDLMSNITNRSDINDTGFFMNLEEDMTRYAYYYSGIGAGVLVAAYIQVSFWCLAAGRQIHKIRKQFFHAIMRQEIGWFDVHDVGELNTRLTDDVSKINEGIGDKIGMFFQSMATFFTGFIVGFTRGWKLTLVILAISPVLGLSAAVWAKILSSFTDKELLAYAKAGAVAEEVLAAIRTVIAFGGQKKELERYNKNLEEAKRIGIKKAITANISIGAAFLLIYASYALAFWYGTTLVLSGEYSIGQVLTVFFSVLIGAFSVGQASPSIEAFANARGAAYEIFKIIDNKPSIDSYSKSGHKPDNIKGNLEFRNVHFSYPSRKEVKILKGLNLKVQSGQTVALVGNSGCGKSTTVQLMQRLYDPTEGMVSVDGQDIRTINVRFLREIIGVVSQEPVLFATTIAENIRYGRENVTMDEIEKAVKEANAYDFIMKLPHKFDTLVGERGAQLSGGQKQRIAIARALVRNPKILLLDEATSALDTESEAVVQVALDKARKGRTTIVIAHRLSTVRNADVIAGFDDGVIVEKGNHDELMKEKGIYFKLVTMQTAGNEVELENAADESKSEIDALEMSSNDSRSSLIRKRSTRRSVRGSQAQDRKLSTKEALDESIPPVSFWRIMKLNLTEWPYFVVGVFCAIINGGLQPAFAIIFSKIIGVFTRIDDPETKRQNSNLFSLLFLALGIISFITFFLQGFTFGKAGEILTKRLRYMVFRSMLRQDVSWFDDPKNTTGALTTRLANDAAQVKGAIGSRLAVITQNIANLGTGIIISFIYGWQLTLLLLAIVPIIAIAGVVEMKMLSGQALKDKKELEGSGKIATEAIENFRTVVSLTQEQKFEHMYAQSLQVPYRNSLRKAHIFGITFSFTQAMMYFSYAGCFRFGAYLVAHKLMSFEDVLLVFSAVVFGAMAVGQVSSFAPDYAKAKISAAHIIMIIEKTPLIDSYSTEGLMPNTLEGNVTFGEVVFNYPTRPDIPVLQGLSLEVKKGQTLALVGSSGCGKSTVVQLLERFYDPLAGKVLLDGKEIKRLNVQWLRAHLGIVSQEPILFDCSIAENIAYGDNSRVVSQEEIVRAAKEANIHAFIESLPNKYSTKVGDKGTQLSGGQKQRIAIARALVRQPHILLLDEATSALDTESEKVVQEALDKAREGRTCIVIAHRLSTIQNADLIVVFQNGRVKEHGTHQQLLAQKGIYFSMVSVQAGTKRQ

Increase of Rh-123 accumulation, LoVo [1]	SMILES	SI, EPG (EPG cells)	CC50 (EPG cells)	Increase in apoptotic cells compared to untreated cells (HT-29 cells)	Number of necrotic cells (HT-29 cells)
2.55 fold	Cc1ccc(N2CCN(Cn3nc(CNC(=O)c4c(C)cc(C)nc4S)n(-c4ccccc4)c3=S)CC2)cc1 [Compound 6]	6.72	57.7 ± 5.4 µM	~5 fold	–
2.8 fold	Cc1cc(C)c(C(=O)NCc2nn(CN3CCN(c4cccc(Cl)c4)CC3)c(=S)n2-c2ccccc2)c(S)n1 [Compound 5, 4,6-dimethyl-N-[(4-phenyl-5-thioxo-2-{[4-(3-chlorophenyl)piperazinyl]methyl}-4,5-dihydro-1H-1,2,4-triazol-3-yl)methyl]-2-sulfanylpyridine-3-carboxamide]	2.66	83 ± 4.6 µM	> 3.5 fold	significant rise
